Experimental data reported in paper PMC5282955, “Fatty acid binding profile of the liver X receptor α” (Journal of Lipid Research, 2017).
Each block holds one compound with its values, some of them ahead of it.

Tests used:
Type in all cases: binding
LXRα [1] = target: T1, LXRα (Homo sapiens, UniProt Q13133); assay: intrinsic aromatic fluorescence quenching (positive control), CD; LXRE reporter activation
T1 construct: gene NR1H3
T1 sequence (Q13133 1-447): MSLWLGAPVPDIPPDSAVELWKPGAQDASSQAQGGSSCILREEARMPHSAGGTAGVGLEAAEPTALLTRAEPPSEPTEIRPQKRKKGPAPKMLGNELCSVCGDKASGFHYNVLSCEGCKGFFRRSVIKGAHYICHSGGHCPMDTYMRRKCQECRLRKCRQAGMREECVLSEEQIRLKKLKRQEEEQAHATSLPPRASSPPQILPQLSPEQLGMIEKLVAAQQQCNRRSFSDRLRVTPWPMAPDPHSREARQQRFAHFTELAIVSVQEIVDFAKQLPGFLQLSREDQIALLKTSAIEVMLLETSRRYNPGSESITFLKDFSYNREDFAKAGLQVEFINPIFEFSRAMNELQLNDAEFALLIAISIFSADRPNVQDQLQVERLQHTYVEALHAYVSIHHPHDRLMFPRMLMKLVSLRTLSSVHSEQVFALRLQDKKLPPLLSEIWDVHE

LXRα [2] = target: T1, LXRα; assay: intrinsic aromatic fluorescence quenching; also displacement of BODIPY C16-CoA (Ki […]); CD
LXRα [3] = target: T1, LXRα; assay: as above; remark: listed apart in the source
LXRα [4] = target: T1, LXRα; assay: displacement of LXRα-bound BODIPY C16-CoA; CD change
LXRα [5] = target: T1, LXRα; assay: intrinsic aromatic fluorescence quenching; displacement Ki […]; LXRE reporter activation
LXRα [6] = target: T1, LXRα; assay: intrinsic aromatic fluorescence quenching; also displacement of BODIPY C16-CoA (Ki […])
LXRα [7] = target: T1, LXRα; assay: as above; remark: listed apart in the source

SMILES: C[C@H](CCCC(C)(C)O)[C@H]1CC[C@H]2[C@@H]3CC=C4C[C@@H](O)CC[C@]4(C)[C@H]3CC[C@]12C [25-HC, 25-hydroxycholesterol]
intrinsic aromatic fluorescence quenching (positive control), CD; LXRE reporter (LXRα [1]): Binding with T-0901317 and 25-hydroxycholesterol (positive controls) yielded binding curves that were sharply saturable

SMILES: CCCCCCCC(=O)SCCNC(=O)CCNC(=O)[C@H](O)C(C)(C)COP(=O)(O)OP(=O)(O)OC[C@H]1O[C@@H](n2cnc3c(N)ncnc32)[C@H](O)[C@@H]1OP(=O)(O)O [C8:0-CoA, Octanoyl-CoA]
Kd (LXRα [2]): 15 ± 5 nM

SMILES: CCCCCCCCCC(=O)O [C10:0, Decanoic acid]
Kd (LXRα [3]): 15 ± 6 nM

SMILES: CCCCCCCCCC(=O)SCCNC(=O)CCNC(=O)[C@H](O)C(C)(C)COP(=O)(O)OP(=O)(O)OC[C@H]1O[C@@H](n2cnc3c(N)ncnc32)[C@H](O)[C@@H]1OP(=O)(O)O [C10:0-CoA, Decanoyl-CoA]
Ki (LXRα [4]): 7 ± 3 nM

Other lines, results leading:

Kd (LXRα [5]): 11 ± 4 nM
SMILES: CCCCCCCCCCCC(=O)O [C12:0, Lauric acid]

Kd (LXRα [6]): 18 ± 8 nM
SMILES: CCCCCCCCCCCC(=O)SCCNC(=O)CCNC(=O)[C@H](O)C(C)(C)COP(=O)(O)OP(=O)(O)OC[C@H]1O[C@@H](n2cnc3c(N)ncnc32)[C@H](O)[C@@H]1OP(=O)(O)O [C12:0-CoA, Lauroyl-CoA]

Kd (LXRα [7]): 14 ± 7 nM
SMILES: CCCCCCCCCCCCCCCC(=O)SCCNC(=O)CCNC(=O)[C@H](O)C(C)(C)COP(=O)(O)OP(=O)(O)OC[C@H]1O[C@@H](n2cnc3c(N)ncnc32)[C@H](O)[C@@H]1OP(=O)(O)O [C16:0-CoA, Palmitoyl-CoA]
